Data as given in patent US20110152236A1 (SANOFI-AVENTIS, priority 2008, published 2011).

How the values were obtained:
cannabinoid CB1 receptor [1] = target: T1, cannabinoid CB1 receptor (Mus musculus, UniProt P47746); test: model of inhibition of gastrointestinal transit induced by racemic CP55,940 in mice; format: in vivo; conditions: 1 mg/kg per os; 3 hours after administration of the product; CP55,940 0.15 mg/kg ip; male CD1 mice
T1 construct: from tissue; host or cells: whole animal (mice; male CD1 mice in the gastrointestinal transit model)
Description: The antagonistic activity of the compounds was also shown by means of the model of inhibition of gastrointestinal transit induced by racemic CP55,940 (1RS,3RS,4RS-3-[hydroxy-2-(1,1-dimethylheptyl)phenyl]-4-(3-hydroxypropyl)cyclohexan-1-ol) in mice, according to the method described by Rinaldi-Carmona et al., J. Pharmacol, Exp. Ther. 2004, 310, 905-914. Briefly, male CD1 mice receive the test product per os 30 minutes or 2 hours before administration of the racemic CP55,940 agonist (1RS,3RS,4RS-3-[hydroxy-2-(1,1-dimethylheptyl)phenyl]-4-(3-hydroxypropyl)cyclohexan-1-ol) (0.15 mg/kg ip in 10% Cremophor). After a further 30 minutes, the animals receive a charcoal bolus po. Thirty minutes later, the animals are euthanized (CO2/O2) and the intestine is dissected. The progression of the charcoal bolus in the intestine is expressed as percentage of the total length of the intestine.

cannabinoid CB1 receptor [2] = target: T1, cannabinoid CB1 receptor; test: model of hypothermia induced by cannabinoid CB1 receptor agonist racemic CP55,940 in mice; format: in vivo; conditions: 3 mg/kg po, hypothermia induced by CP55,940 1.25 mg/kg
Description: Other tests consisting in measuring the in vivo activity of the compounds of the invention were carried out. The antagonist activity of said compounds was shown by means of the model of hypothermia induced by a cannabinoid CB1 receptor agonist (racemic CP55,940 (1RS,3RS,4RS)-3-[hydroxy-2-(1,1-dimethylheptyl)phenyl]-4-(3-hydroxypropypcyclohexan-1-ol) at a dose of 1.25 mg/kg, in mice, according to the method described by R. G. Pertwee in Marijuana 84, Harvey D. J. eds, Oxford IRL Press, 263-277 (1985).

human CB1 receptor = target: T2, human CB1 receptor (Homo sapiens, UniProt P21554); test: intracellular cyclic AMP test in U373MG cells (HTRF cAMP Dynamic Kit); format: cell-based; conditions: U373MG cells naturally expressing the human CB1 receptor; intracellular cyclic AMP; read-out: IC50
T2 construct: U373MG cells naturally expressing the human CB1 receptor; endogenous in cells; host or cells: U373MG cells
Description: The compounds according to the invention were the subject of pharmacological tests for determining the activity with respect to human cannabinoid CB1-type receptors. The efficacy of the compounds of formula (I) was determined in a functional test which measures cannabinoid CB1 receptor activity (intracellular cyclic AMP test). The test for detecting intracellular cyclic AMP in U373MG cells naturally expressing the human CB1 receptor was carried out as described in the following reference: Bouaboula et al., 1995, J. Biol. Chem. 270:13973-13980. The HTRF cAMP Dynamic Kit from CisBio was used to quantify the intracellular cyclic AMP. In this test, the IC50 values are between 0.001 μM and 2 μM.

T1 sequence (P47746 whole entry): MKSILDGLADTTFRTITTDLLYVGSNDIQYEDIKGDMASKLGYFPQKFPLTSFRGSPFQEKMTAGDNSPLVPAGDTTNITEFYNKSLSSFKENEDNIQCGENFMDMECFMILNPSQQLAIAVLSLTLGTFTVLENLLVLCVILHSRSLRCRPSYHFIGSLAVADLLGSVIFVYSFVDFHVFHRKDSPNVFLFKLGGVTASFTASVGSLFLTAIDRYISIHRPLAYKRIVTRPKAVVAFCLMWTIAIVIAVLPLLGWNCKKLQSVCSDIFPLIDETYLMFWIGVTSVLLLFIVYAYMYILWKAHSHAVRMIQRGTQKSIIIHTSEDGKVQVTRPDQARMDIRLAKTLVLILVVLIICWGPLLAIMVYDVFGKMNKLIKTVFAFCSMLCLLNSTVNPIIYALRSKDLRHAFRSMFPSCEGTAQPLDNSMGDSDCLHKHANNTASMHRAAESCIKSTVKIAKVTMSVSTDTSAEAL
T2 sequence (P21554 whole entry): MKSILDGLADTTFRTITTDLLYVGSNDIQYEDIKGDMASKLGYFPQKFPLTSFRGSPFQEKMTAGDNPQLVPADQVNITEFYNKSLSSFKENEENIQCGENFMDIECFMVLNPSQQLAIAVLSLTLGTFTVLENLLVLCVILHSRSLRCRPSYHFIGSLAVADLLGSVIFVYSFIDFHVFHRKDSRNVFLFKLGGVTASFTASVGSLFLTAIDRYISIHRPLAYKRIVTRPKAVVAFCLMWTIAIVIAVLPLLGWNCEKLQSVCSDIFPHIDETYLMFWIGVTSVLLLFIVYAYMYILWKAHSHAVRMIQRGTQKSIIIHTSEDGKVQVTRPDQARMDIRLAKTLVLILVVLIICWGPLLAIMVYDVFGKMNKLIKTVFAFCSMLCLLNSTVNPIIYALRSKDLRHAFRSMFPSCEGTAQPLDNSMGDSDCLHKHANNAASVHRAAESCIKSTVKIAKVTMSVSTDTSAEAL

percentages of inhibition (cannabinoid CB1 receptor [1]) | melting point | percentage inhibition (cannabinoid CB1 receptor [2]) | IC50 (human CB1 receptor) | Compound
68% | 202 °C | 32% |  | CS(=O)(=O)N(c1cccc(C(=O)Nc2ccccn2)c1)C1CN(C(c2ccc(Cl)cc2)c2ccc(Cl)cc2)C1 [Compound 7, 3-[{1-[Bis(4-chlorophenyl)methyl]azetidin-3-yl}(methylsulphonyl)amino]-N-(pyridin-2-yl)benzamide]
82% | 218 °C | 28% | 6 nM | CS(=O)(=O)N(c1cccc(C(=O)Nc2ccon2)c1)C1CN(C(c2ccc(Cl)cc2)c2ccc(Cl)cc2)C1 [Compound 5, 3-[{1-[bis(4-chlorophenyl)methyl]azetidin-3-yl}(methylsulphonyl)amino]-N-(isoxazol-3-yl)-benzamide]
